Source: patent publication US20240327364A1, “THERAPEUTIC TARGETING OF GPR68 TO INDUCE FERROPTOSIS” (University Of Maryland, Baltimore, priority 2023, published 2024)

Experiments:
PTH2 = target: T1, PTH2 (Homo sapiens, UniProt P49190); test: GPCR Profiler; assay type: cell-based
T1 construct: host or cells: Chem-1 cells with Gα15

RET(V804M) = target: T2, RET(V804M) (Homo sapiens, UniProt P07949, V804M); test: KinomeScan; assay type: binding; conditions: read-out: % Control
T2 construct: purchased DiscoveRx (Fremont, CA)

OX1 = target: T3, OX1 (Homo sapiens, UniProt O43613); test: GPCR Profiler; assay type: cell-based
T3 construct: host or cells: Chem-1 cells expressing Gα15
T3 sequence (O43613 whole entry): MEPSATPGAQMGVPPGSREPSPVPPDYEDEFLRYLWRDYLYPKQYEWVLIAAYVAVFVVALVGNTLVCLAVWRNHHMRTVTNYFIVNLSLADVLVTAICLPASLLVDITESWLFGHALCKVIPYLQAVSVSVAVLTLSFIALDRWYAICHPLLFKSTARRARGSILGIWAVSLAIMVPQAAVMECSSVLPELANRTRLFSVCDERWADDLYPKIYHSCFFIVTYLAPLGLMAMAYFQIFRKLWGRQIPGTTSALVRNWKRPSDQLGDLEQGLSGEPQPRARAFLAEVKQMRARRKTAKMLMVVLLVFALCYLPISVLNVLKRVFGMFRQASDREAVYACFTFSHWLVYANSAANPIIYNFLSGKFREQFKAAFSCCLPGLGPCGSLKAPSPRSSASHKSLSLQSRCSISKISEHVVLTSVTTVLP

CXCR1 = target: T4, CXCR1 (Homo sapiens, UniProt P25024); test: GPCR Profiler; assay type: cell-based
T4 construct: host or cells: Chem-1 cells with Gα15
T4 sequence (P25024 whole entry, species assumed): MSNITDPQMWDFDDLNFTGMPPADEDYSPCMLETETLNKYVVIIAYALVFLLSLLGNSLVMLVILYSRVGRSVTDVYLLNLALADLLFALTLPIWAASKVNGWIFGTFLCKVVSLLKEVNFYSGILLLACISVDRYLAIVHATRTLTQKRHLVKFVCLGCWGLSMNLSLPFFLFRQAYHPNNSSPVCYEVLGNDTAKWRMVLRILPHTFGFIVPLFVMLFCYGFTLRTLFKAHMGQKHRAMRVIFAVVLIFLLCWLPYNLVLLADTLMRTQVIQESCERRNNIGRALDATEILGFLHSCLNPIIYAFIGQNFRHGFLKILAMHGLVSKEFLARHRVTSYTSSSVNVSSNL

YANK1 = target: T5, YANK1 (Homo sapiens, UniProt Q8WU08); test: KinomeScan; assay type: binding; conditions: read-out: % Control
T5 construct: purchased DiscoveRx

EPHA1 = target: T6, EPHA1 (Homo sapiens, UniProt P21709); test: KinomeScan; assay type: binding; conditions: read-out: % Control
T6 construct: purchased DiscoveRx (Fremont, CA)
T6 sequence (P21709 26-976): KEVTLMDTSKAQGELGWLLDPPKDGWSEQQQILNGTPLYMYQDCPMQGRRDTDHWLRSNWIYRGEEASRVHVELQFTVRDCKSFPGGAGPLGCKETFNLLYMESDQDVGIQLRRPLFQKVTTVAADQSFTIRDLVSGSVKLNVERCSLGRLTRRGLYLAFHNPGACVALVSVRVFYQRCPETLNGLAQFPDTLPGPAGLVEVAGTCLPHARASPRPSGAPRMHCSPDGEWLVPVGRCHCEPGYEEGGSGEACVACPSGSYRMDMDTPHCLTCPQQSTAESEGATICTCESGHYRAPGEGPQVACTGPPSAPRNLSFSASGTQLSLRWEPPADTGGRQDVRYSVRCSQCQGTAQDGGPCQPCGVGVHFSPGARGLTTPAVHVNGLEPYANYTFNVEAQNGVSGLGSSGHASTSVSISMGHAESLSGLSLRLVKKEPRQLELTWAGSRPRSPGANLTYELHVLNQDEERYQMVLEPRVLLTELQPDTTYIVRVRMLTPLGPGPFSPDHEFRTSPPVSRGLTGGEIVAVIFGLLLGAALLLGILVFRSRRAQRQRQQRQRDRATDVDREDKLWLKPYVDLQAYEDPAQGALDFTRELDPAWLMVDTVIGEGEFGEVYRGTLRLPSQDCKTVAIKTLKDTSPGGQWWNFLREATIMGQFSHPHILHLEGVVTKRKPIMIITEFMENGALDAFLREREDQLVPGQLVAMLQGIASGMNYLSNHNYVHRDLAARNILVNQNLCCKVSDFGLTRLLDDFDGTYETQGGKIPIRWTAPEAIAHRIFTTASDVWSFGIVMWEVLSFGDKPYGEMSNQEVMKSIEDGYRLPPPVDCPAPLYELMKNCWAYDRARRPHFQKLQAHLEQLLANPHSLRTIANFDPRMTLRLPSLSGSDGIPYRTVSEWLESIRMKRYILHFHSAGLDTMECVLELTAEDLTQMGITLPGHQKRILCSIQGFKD

BRK = target: T7, BRK (Homo sapiens, UniProt Q13882); test: KinomeScan; assay type: binding; conditions: read-out: % Control
T7 construct: purchased DiscoveRx (Fremont, CA)

ARK5 = target: T8, ARK5 (Homo sapiens, UniProt O60285); test: KinomeScan; assay type: binding; conditions: read-out: % Control
T8 construct: purchased DiscoveRx (Fremont, CA)

FGFR3(G697C) = target: T9, FGFR3(G697C) (Homo sapiens, UniProt P22607, G697C); test: KinomeScan; assay type: binding; conditions: read-out: % Control
T9 construct: purchased DiscoveRx (Fremont, CA)

BB1 = target: T10, BB1 (Homo sapiens, UniProt P28336); test: GPCR Profiler; assay type: cell-based
T10 construct: host or cells: Chem-1 cells with promiscuous Gα15
T10 sequence (P28336 whole entry): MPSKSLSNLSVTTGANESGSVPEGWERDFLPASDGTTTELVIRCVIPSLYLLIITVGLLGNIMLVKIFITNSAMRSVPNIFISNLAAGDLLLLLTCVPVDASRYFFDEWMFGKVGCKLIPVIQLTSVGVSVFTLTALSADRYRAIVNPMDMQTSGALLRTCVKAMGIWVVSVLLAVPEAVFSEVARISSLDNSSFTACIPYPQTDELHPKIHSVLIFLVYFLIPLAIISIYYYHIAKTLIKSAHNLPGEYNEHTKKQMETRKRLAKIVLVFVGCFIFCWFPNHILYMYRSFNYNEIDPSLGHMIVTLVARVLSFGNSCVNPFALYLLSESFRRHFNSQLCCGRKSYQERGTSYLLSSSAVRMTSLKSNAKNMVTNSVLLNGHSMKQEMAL

EPHA6 = target: T11, EPHA6 (Homo sapiens, UniProt Q9UF33); test: KinomeScan; assay type: binding; conditions: read-out: % Control
T11 construct: purchased DiscoveRx (Fremont, CA)

RIOK1 = target: T12, RIOK1 (Homo sapiens, UniProt Q9BRS2); test: KinomeScan; assay type: binding; conditions: read-out: % Control
T12 construct: purchased DiscoveRx (Fremont, CA)

EPHB2 = target: T13, EPHB2 (Homo sapiens, UniProt P29323); test: KinomeScan; assay type: binding; conditions: read-out: % Control
T13 construct: purchased DiscoveRx (Fremont, CA)

EP4 = target: T14, EP4 (Homo sapiens, UniProt P35408); test: GPCR Profiler; assay type: cell-based
T14 construct: host or cells: Chem-1 cells expressing Gα15
T14 sequence (P35408 whole entry): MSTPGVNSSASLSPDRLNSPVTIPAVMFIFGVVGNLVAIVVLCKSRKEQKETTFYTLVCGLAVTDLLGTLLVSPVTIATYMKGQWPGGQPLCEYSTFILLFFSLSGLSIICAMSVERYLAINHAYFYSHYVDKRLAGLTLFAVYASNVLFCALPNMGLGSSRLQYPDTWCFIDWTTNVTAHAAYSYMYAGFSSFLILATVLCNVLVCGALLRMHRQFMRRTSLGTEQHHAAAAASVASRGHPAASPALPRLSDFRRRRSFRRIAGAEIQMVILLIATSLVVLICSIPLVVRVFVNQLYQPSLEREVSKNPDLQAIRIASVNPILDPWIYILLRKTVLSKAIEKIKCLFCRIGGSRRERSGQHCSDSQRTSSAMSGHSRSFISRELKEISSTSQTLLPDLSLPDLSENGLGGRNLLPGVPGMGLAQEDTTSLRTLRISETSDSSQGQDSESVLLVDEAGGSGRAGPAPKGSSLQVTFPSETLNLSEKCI

CDKL5 = CDKL5 (Homo sapiens, UniProt O76039); test: KinomeScan; assay type: binding; conditions: read-out: % Control
TRH = target: T15, TRH (Homo sapiens, UniProt P34981); test: GPCR Profiler; assay type: cell-based
T15 construct: host or cells: Chem-1 cells with Gα15
T15 sequence (P34981 whole entry): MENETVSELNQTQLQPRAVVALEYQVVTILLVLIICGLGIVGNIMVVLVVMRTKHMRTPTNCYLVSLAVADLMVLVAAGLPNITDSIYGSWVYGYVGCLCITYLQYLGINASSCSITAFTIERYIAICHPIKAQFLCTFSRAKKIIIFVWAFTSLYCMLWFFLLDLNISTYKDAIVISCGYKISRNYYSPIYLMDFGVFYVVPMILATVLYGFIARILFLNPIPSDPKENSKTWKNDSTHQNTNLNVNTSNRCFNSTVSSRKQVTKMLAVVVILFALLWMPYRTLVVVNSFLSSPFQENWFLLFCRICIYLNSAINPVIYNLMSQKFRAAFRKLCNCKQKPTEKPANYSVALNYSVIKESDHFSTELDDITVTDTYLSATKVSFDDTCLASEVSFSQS

KIT(V559D, V654A) = target: T16, KIT(V559D, V654A) (Homo sapiens, UniProt P10721, V559D/V654A); test: KinomeScan; assay type: binding; conditions: read-out: % Control
T16 construct: purchased DiscoveRx

PAK4 = target: T17, PAK4 (Homo sapiens, UniProt O96013); test: KinomeScan; assay type: binding; conditions: read-out: % Control
T17 construct: purchased DiscoveRx

[1] = target: T18, JAK1(JH2domain-pseudokinase) (Homo sapiens, UniProt P23458); test: KinomeScan; assay type: binding; conditions: read-out: % Control
T18 construct: JAK1(JH2domain-pseudokinase); purchased DiscoveRx (Fremont, CA)

M5 = target: T19, M5 (Homo sapiens, UniProt P08912); test: GPCR Profiler; assay type: cell-based
T19 construct: host or cells: Chem-1 cells with promiscuous Gα15
T19 sequence (P08912 whole entry): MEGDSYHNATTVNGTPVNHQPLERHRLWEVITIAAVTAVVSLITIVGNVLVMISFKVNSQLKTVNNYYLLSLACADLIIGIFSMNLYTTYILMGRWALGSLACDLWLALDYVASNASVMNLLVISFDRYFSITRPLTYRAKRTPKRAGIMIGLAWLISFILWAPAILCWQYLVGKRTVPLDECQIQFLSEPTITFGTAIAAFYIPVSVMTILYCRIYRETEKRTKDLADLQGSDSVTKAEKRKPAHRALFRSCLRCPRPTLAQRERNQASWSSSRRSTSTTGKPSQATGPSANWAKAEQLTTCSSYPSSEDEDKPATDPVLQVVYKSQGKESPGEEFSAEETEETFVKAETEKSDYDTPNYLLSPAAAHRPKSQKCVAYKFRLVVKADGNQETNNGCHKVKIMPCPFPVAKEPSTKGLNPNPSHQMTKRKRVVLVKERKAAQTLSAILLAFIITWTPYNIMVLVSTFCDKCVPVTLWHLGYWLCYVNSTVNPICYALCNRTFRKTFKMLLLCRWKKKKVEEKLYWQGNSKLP

FPR2 = target: T20, FPR2 (Homo sapiens, UniProt P25090); test: GPCR Profiler; assay type: cell-based
T20 construct: host or cells: Chem-1 cells expressing Gα15
T20 sequence (P25090 whole entry): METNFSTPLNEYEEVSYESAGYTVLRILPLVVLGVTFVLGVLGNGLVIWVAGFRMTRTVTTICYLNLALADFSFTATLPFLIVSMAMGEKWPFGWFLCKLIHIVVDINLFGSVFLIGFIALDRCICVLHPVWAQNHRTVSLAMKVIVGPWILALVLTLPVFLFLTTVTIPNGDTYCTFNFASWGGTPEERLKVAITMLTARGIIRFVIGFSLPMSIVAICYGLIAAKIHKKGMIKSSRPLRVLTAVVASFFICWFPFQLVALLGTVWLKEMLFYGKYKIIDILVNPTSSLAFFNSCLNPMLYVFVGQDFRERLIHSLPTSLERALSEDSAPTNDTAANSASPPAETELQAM

S1P5 = target: T21, S1P5 (Homo sapiens, UniProt Q9H228); test: GPCR Profiler; assay type: cell-based
T21 construct: host or cells: Chem-1 cells with Gα15
T21 sequence (Q9H228 whole entry, species assumed): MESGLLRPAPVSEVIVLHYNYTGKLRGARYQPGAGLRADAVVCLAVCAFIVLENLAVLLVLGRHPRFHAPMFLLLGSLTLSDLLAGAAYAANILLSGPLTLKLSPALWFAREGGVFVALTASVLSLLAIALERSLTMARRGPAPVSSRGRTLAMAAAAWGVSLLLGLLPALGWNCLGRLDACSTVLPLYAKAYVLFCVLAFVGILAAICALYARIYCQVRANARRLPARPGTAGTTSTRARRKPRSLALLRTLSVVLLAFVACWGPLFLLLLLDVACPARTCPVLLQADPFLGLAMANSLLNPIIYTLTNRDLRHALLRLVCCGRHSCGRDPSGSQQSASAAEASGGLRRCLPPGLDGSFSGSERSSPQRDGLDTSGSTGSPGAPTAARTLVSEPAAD

SW480 = test: Cell Titer-Glo viability, Colon adenocarcinoma; assay type: cell-based; conditions: 72 hours
Experimental: OGM2 kills wide variety of cancer cell types. Cell sensitivity can be classified in to Very Sensitive (LC50<2 μM), Sensitive (LC50=2 to 10 μM), Mildly Sensitive (LC50>10 μM), and Refractory (no killing at 10 μM). The listed established cell were incubated with OGM2 at 2 μM or 10 μM for 72 hours under standard cell culture conditions, and relative cell number was assessed using Cell Titer-Glo Luminescent Cell Viability Assay (Promega™) following the manufacturer's instructions. Luminescence was determined using a Cytation 5 reader and Gen5 software package (BioTek™).
Cancer cells, which are very sensitive to killing by OGM2 (LCs <2 μM), with reported mRNA expression of GPR68 and the related proton sensing receptor GPR4. LC50's (concentrations causing 50% lethality) were determined using CellTiter-Glo (Promega™, G7570). Cells were plated in 12-well plates (CELLTREAT Scientific Products, 229112) in 1 ml of DMEM with high glucose, GlutaMAX, HEPES, or RPMI 1640 with Penicillin-Streptomycin (ThermoFisher™, 10564029, 11875119 and 15140122) and 10% FBS. Cells were incubated overnight at 37° C. in 5% CO2. Then 1 mL of fresh media was added with DMSO, OGM, or positive control (Erastin; APExBIO Technology, LLC, B1524) and cells incubated for 3 days. On the third day, all media was removed, cells were rinsed with 1×PBS, PBS was removed, and 200 μL of 1× Passive Lysis Buffer (Promega™, E1941) was added to each well. […]. […] Plates were briefly spun down and read on a GloMax-Multi Detection System (Promega™).
The cells listed in the tables above were incubated with OGM2 at 2 μM or 10 μM for 72 hours under standard cell culture conditions, and relative cell number was assessed using Cell Titer-Glo Luminescent Cell Viability Assay (Promega™) following the manufacturer's instructions. Luminescence was determined using a Cytation 5 reader and Gen5 software package (BioTek™). […] The consensus normalized expression value (“nTPM”=normalize transcript per million) was calculated as the maximum nTPM value for each gene in the two data sources.

T1 sequence (P49190 25-550): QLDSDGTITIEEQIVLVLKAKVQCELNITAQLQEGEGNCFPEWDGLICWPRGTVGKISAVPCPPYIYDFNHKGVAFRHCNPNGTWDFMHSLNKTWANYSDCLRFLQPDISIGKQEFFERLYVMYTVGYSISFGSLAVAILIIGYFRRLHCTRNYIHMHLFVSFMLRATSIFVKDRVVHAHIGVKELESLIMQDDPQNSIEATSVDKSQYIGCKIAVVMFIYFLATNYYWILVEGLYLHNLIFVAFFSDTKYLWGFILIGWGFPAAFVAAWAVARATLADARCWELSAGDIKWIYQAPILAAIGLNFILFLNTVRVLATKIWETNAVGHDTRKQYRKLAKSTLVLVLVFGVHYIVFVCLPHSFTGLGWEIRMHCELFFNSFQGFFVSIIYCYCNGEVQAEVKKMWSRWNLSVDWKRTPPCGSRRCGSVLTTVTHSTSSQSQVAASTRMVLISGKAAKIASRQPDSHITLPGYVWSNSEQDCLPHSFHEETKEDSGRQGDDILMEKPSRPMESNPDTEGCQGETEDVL

With `CCc1ccc2c(c1)C1(NN=C(c3cccc4ccccc34)S1)C(=O)N2` (stereo not shown) [OGM1, 5-ethyl-5′-naphthalen-1-ylspiro[1H-indole-3,2′-3H-1,3,4-thiadiazole]-2-one] the Antagonism (PTH2; 10 uM) was −19.2, the Agonism (PTH2; 12.5 uM) was 1.1 and the remaining binding at 10 µM (RET(V804M)) was 100%. It also gave an Antagonism (OX1; 10 uM) of 1.6, an Agonism (OX1; 12.5 uM) of 1.4 and an Antagonism (CXCR1; 10 uM) of 6.5. It also gave an Agonism (CXCR1; 12.5 uM) of −0.7, a remaining binding at 10 µM (YANK1) of 100% and a remaining binding at 10 µM (EPHA1) of 92%. For the same compound, the remaining binding at 10 µM (BRK) was 100%, the remaining binding at 10 µM (ARK5) was 80% and the remaining binding at 10 µM (FGFR3(G697C)) was 99%. It also gave an Antagonism (BB1; 10 uM) of 3.5, an Agonism (BB1; 12.5 uM) of −0.2 and a remaining binding at 10 µM (EPHA6) of 100%. The remaining binding at 10 µM (RIOK1) was 100%, the remaining binding at 10 µM (EPHB2) was 100% and the Antagonism (EP4; 10 uM) was −17. It also gave an Agonism (EP4; 12.5 uM) of 0.9, a remaining binding at 10 µM (CDKL5) of 85% and an Antagonism (TRH; 10 uM) of 1.4. For the same compound, the Agonism (TRH; 12.5 uM) was 0.1, the remaining binding at 10 µM (KIT(V559D, V654A)) was 100% and the remaining binding at 10 µM (PAK4) was 66%. For the same compound, the remaining binding at 10 µM [1] was 100%, the Antagonism (M5; 10 uM) was 3.4 and the Agonism (M5; 12.5 uM) was −0.6. The Antagonism (FPR2; 10 uM) was 23, the Agonism (FPR2; 12.5 uM) was −0.4 and the Antagonism (S1P5; 10 uM) was 0.9. For the same compound, the Agonism (S1P5; 12.5 uM) was 1.8.

`CCc1ccc2c(c1)C1(NN=C(c3ccccc3)S1)C(=O)N2` (stereo not shown) [OGM2] was tested, and the “% Survival 2 μM OGM” value (SW480) was 39.8%, the “% Survival 10 μM OGM” value (SW480) was 25.0% and the CC50 (SW480; Homo sapiens, SW480, read-out: LC50 (the source's name)) was under 2000 nM.
